Source: PMC12337341 (Proceedings of the National Academy of Sciences of the …, 2025)

Assays:
Format in all cases: biochemical
[1] = target: T1, CRYL1 (Homo sapiens, UniProt Q9Y2S2); assay: 1H NMR, NADH at […] nm and UHPLC-HRMS of product BKG; conditions: 20 mM potassium phosphate pH 7.9, 25 °C, NAD+ (NMR); oxidation at C3
T1 sequence (Q9Y2S2 2-319): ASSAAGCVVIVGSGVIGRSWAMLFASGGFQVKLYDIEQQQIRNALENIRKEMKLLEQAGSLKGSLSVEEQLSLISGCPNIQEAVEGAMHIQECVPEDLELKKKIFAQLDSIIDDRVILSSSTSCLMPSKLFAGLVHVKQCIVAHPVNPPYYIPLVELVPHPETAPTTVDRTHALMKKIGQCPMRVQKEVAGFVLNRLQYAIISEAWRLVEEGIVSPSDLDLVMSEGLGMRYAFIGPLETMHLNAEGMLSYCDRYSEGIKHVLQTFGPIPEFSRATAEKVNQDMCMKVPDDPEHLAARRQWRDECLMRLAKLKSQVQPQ

[2] = target: DCXR (Homo sapiens, UniProt Q7Z4W1); assay: 1H NMR
Sequence of DCXR (Q7Z4W1 whole entry): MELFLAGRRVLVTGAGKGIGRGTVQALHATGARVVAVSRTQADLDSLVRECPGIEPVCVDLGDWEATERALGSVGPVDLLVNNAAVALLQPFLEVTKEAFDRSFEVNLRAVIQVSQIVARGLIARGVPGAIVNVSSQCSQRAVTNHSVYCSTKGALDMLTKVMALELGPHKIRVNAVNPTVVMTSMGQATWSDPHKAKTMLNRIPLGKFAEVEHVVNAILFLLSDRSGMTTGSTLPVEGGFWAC

[3] = target: T1, CRYL1; assay: NADH formation at […] nm; conditions: 20 mM potassium phosphate, 37 °C, L-gulonate

O=C(O)[C@@H](O)[C@@H](O)[C@H](O)[C@@H](O)CO [L-gulonate]
1H NMR, NADH at 340 nm and UHPLC-HRMS of product BKG [1]: the CRYL1 oxidation of L-gulonate at C3 is observed

NC(=O)c1ccc[n+]([C@@H]2O[C@H](COP(=O)(O)OP(=O)(O)OC[C@H]3O[C@@H](n4cnc5c(N)ncnc54)[C@H](OP(=O)(O)O)[C@@H]3O)[C@@H](O)[C@H]2O)c1 [NADP+]
1H NMR ([2]; reverse reaction with xylitol, same): using DCXR in the reverse reaction with xylitol and NADP+ as substrates

NC(=O)c1ccc[n+]([C@@H]2O[C@H](COP(=O)(O)OP(=O)(O)OC[C@H]3O[C@@H](n4cnc5c(N)ncnc54)[C@H](O)[C@@H]3O)[C@@H](O)[C@H]2O)c1 [NAD^+]
NADH formation at 340 nm [3]: exploiting the equilibrium of the NAD-dependent reaction of CRYL1

OC[C@@H](O)[C@H](O)[C@@H](O)CO [xylitol]
1H NMR ([2]; reverse reaction with NADP+, 20 mM potassium phosphate pH 7.9, 25 °C): using DCXR in the reverse reaction with xylitol and NADP+ as substrates
